In EP0360258B1, “Amino acid quinoline and naphthyridine derivatives” (ABBOTT LABORATORIES, priority 1988, dated 1990):
Converted amounts (≈) assume the structure as drawn. Where a name gives a salt, the structure may show the parent alone. Read-outs that look alike come from different tables or passages of the source.

Assays:
EN[…] ATCC 8043 = assay: In vitro antibacterial activity, agar dilution MIC (BHIA); assay type: cell-based; conditions: Enterococcus faecium, ATCC8043, 18 h
Excerpt: (§1) The MIC results are in ug/ml. TABLE VII

M[…] ATCC 4698 = assay: as above; assay type: cell-based; conditions: Micrococcus luteus, ATCC4698, 18 h
Excerpt: as §1

M[…] ATCC 9341 = assay: as above; assay type: cell-based; conditions: Micrococcus luteus, ATCC9341, 18 h
Excerpt: as §1

P[…] 296I = assay: as above; assay type: cell-based; conditions: Burkholderia cepacia, 18 h
Excerpt: as §1

STR[…] 508 = assay: as above; assay type: cell-based; conditions: Streptococcus agalactiae, 18 h
Excerpt: as §1

STR[…] EES61 = assay: as above; assay type: cell-based; conditions: Streptococcus pyogenes, 18 h
Excerpt: as §1

[1] = tested on: STREPTOCOCCUS BOVIS A5169; assay: as above; assay type: cell-based; conditions: Streptococcus equinus, 18 h
[2] = tested on: STREPTOCOCCUS PYOGENES 930 CONST; assay: as above; assay type: cell-based; conditions: 18 h
STR[…] 2548 INDUC = assay: as above; assay type: cell-based; conditions: Streptococcus pyogenes, 18 h
ESCHERICHIA COLI JUHL = assay: as above; assay type: cell-based; conditions: 18 h
ESCHERICHIA COLI SS = assay: as above; assay type: cell-based; conditions: Brain Heart Infusion Agar (BHIA), 36° C, 18 h, strain SS
ESCHERICHIA COLI DC-2 = assay: as above; assay type: cell-based; conditions: 18 h
ESCHERICHIA COLI H560 = assay: as above; assay type: cell-based; conditions: 18 h
ESCHERICHIA COLI KNK 437 = assay: as above; assay type: cell-based; conditions: Brain Heart Infusion Agar (BHIA), 36° C, 18 h, strain KNK 437
[3] = tested on: ENTEROBACTER AEROGENES ATCC 13048; assay: as above; assay type: cell-based; conditions: Klebsiella aerogenes
[4] = tested on: KLEBSIELLA PNEUMONIAE ATCC 8045; assay: as above; assay type: cell-based
[5] = tested on: PROVIDENCIA STUARTII CMX 640; assay: as above; assay type: cell-based; conditions: 18 h
[6] = tested on: PSEUDOMONAS AERUGINOSA BMH10; assay: as above; assay type: cell-based; conditions: 18 h
[7] = tested on: PSEUDOMONAS AERUGINOSA K799/61; assay: as above; assay type: cell-based; conditions: Brain Heart Infusion Agar (BHIA), 36° C, 18 h, strain K799/61
ACINETOBACTER SP CMX 669 = assay: as above; assay type: cell-based; conditions: 18 h
[8] = Plasma level in dog after oral dose; assay type: in vivo; conditions: 10 mg/kg, 10 mg equivalent/kg oral dose, HPLC
Excerpt: The plasma samples were collected and determined by the HPLC analysis.

[9] = tested on: PSEUDOMONAS AERUGINOSA K799/WT; assay: In vitro antibacterial activity, agar dilution MIC (BHIA); assay type: cell-based; conditions: Brain Heart Infusion Agar (BHIA), 36° C, 18 h, strain K799/WT
Excerpt: as §1

[10] = tested on: PSEUDOMONAS AERUGINOSA A5007; assay: as above; assay type: cell-based; conditions: Brain Heart Infusion Agar (BHIA), 36° C, 18 h, strain A5007
Excerpt: as §1

[11] = Brain Heart Infusion Agar (BHIA), 36° C, strain JUHL, read-out: MIC
[12] = ATCC13048, Brain Heart Infusion Agar (BHIA), 36° C, 18 h, strain ATCC 13048, read-out: MIC
[13] = ATCC8045, Brain Heart Infusion Agar (BHIA), 36° C, 18 h, strain ATCC 8045, read-out: MIC
[14] = Brain Heart Infusion Agar (BHIA), 36° C, strain BMH10, read-out: MIC
[15] = Brain Heart Infusion Agar (BHIA), 36° C, strain CMX 669, read-out: MIC
[16] = Brain Heart Infusion Agar (BHIA), 36° C, strain A5169, read-out: MIC
[17] = Brain Heart Infusion Agar (BHIA), 36° C, strain CMX 640, read-out: MIC

| SMILES | MIC (EN[…] ATCC 8043) [µg/mL] | MIC (M[…] ATCC 4698) [µg/mL] | MIC (M[…] ATCC 9341) [µg/mL] | MIC (P[…] 296I) [µg/mL] | MIC (STR[…] 508) [µg/mL] | MIC (STR[…] EES61) [µg/mL] | MIC [1] [µg/mL] | MIC [2] [µg/mL] | MIC (STR[…] 2548 INDUC) [µg/mL] | MIC (ESCHERICHIA COLI JUHL; [11]) [µg/mL] | MIC (ESCHERICHIA COLI SS) [µg/mL] | MIC (ESCHERICHIA COLI DC-2) [µg/mL] | MIC (ESCHERICHIA COLI H560) [µg/mL] | MIC (ESCHERICHIA COLI KNK 437) [µg/mL] | MIC [3, 12] [µg/mL] | MIC [4, 13] [µg/mL] | MIC [6, 14] [µg/mL] | MIC [7] [µg/mL] | solubility (physchem; pH 7.4) [µg/mL] | solubility (physchem; water) [µg/mL] | other results |
| --- | --- | --- | --- | --- | --- | --- | --- | --- | --- | --- | --- | --- | --- | --- | --- | --- | --- | --- | --- | --- | --- |
| NCC(=O)N[C@@H](Cc1ccccc1)C(=O)NC1CCN(c2nc3c(cc2F)c(=O)c(C(=O)O)cn3-c2ccc(F)cc2F)C1 (stereo partly drawn) [Example 1b, 7-[(3-Gly-L-Phe-amino)-1-pyrrolidinyl]-1-(2,4-difluorophenyl)-6-fluoro-1,4-dihydro-4-oxo-1,8-naphthyridine-3-carboxylic acid hydrochloride] | 1.56 | 0.78 | 6.25 | 50 | 1.56 | 1.56 | 1.56 | 0.78 | 0.78 | 3.12 | 0.2 | 100 | 1.56 | 25 | 12.5 | 12.5 | 25 | 12.5 | 1040 | > 98000 | MIC [5]: 100 µg/mL; MIC (ACINETOBACTER SP CMX 669; [15]): 12.5 µg/mL |
| NC1CCN(c2nc3c(cc2F)c(=O)c(C(=O)O)cn3-c2ccc(F)cc2F)C1 (centres unmarked) [tosufloxacin, 7-(3-amino-1-pyrrolidinyl)-6-fluoro,1-(2,4-difluorophenyl)-1,4-dihydro-4-oxo-1,8-naphthyridine-3-carboxylic acid, reference compound] | – | – | – | – | 0.39 (≈ 0.965 µM) | – | 0.39 (≈ 0.965 µM) | – | 0.1 (≈ 0.247 µM) | 0.02 (≈ 0.0495 µM) | 0.005 (≈ 0.0124 µM) | 0.39 (≈ 0.965 µM) | – | – | 0.05 (≈ 0.124 µM) | 0.02 (≈ 0.0495 µM) | 0.1 (≈ 0.247 µM) | – | 10 (≈ 24.7 µM) | 650 (≈ 1610 µM) | MIC (ACINETOBACTER SP CMX 669; [15]): 0.1 µg/mL (≈ 0.247 µM); AUC(0-t) at 32 h [8]: 5300 ng·h/mL; Cmax ([8]; read-out: C max (range)): 670 ng/mL |
| CC(N)C(=O)NC(C)C(=O)NC1CCN(c2nc3c(cc2F)c(=O)c(C(=O)O)cn3-c2ccc(F)cc2F)C1 (centres unmarked) [Example 15] | 50 (≈ 91.5 µM) | 100 (≈ 183 µM) | > 100 | 50 (≈ 91.5 µM) | 12.5 (≈ 22.9 µM) | 12.5 (≈ 22.9 µM) | – | 12.5 (≈ 22.9 µM) | 12.5 (≈ 22.9 µM) | – | 0.39 (≈ 0.714 µM) | – | – | 50 (≈ 91.5 µM) | 25 (≈ 45.7 µM) | – | 100 (≈ 183 µM) | 3.1 (≈ 5.67 µM) | 1070 (≈ 1960 µM) | > 70000 | MIC [9]: 50 µg/mL (≈ 91.5 µM); MIC [1, 16]: 50 µg/mL (≈ 91.5 µM); MIC (ESCHERICHIA COLI JUHL): 12.5 µg/mL (≈ 22.9 µM); MIC (ESCHERICHIA COLI DC-2; Brain Heart Infusion Agar (BHIA), 36° C, strain DC-2, read-out: MIC): 100 µg/mL (≈ 183 µM); MIC (ESCHERICHIA COLI H560; Brain Heart Infusion Agar (BHIA), 36° C, strain H560, read-out: MIC): 6.2 µg/mL (≈ 11.3 µM); MIC ([4]; ATCC8045, 18 h): 12.5 µg/mL (≈ 22.9 µM); MIC [5, 17]: 100 µg/mL (≈ 183 µM); MIC (ACINETOBACTER SP CMX 669): 12.5 µg/mL (≈ 22.9 µM) |
| NC(Cc1ccccc1)C(=O)NC1CCN(c2nc3c(cc2F)c(=O)c(C(=O)O)cn3-c2ccc(F)cc2F)C1 (centres unmarked) [Example 5] | 3.1 (≈ 5.62 µM) | 12.5 (≈ 22.7 µM) | 25 (≈ 45.3 µM) | > 100 | 3.1 (≈ 5.62 µM) | 3.1 (≈ 5.62 µM) | – | – | 0.78 (≈ 1.41 µM) | – | 0.1 (≈ 0.181 µM) | 50 (≈ 90.7 µM) | 3.1 (≈ 5.62 µM) | 100 (≈ 181 µM) | – | 1.56 (≈ 2.83 µM) | – | 1.56 (≈ 2.83 µM) | 340 (≈ 616 µM) | > 101000 | MIC [10]: 50 µg/mL (≈ 90.7 µM); MIC [9]: 25 µg/mL (≈ 45.3 µM); MIC [1, 16]: 6.2 µg/mL (≈ 11.2 µM); MIC ([2]; Brain Heart Infusion Agar (BHIA), 36° C, strain 930 CONST, read-out: MIC): 1.56 µg/mL (≈ 2.83 µM); MIC (ESCHERICHIA COLI JUHL): 3.1 µg/mL (≈ 5.62 µM); MIC ([3]; ATCC13048, 18 h): 12.5 µg/mL (≈ 22.7 µM); MIC [5, 17]: > 100 µg/mL; MIC [6]: 25 µg/mL (≈ 45.3 µM); MIC (ACINETOBACTER SP CMX 669): 12.5 µg/mL (≈ 22.7 µM) |
